Some test systems named below: SW-620 colon; HOP-62 NSCLC; SK-MEL-2 melanoma; MALME-3M melanoma; SK-OV-3 ovarian; OVCAR-3 ovarian; NCI-H522 lung; NCI-H226 lung; UACC-62 melanoma; TK-10 renal; LOX IMVI melanoma.
Common to all, as to experiment: DTP human tumour cell line panel, 48 h

This is an account of results in PubChem BioAssay (NCI).

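Method: 48-hour compound exposure of cells in 96-well plates, five concentrations, linear interpolation of endpoints. TGI denotes the concentration required for complete inhibition of growth.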 Some results are limits rather than exact numbers.

Broadly, the TGI is the concentration giving total growth inhibition. High values mean less potent growth arrest, low ones more potent growth arrest. `N#Cc1ccc([N+](=O)[O-])cc1NC(N)=S`: the TGI with SW-620 colon, with HOP-62 NSCLC, in the experiment on SK-MEL-2 melanoma, with MALME-3M melanoma, in the experiment on SK-OV-3 ovarian and in the experiment on OVCAR-3 ovarian was greater than 100 µM throughout. In the experiment on NCI-H522 lung, this compound gave a TGI greater than 100 µM.
For the compound `CC(=O)OCC1=CC2OC(=O)C3=COC(OC4OC(CO)C(O)C(O)C4O)C1C32` (stereo not drawn), the TGI in the experiment on NCI-H226 lung, with SW-620 colon, in the experiment on HOP-62 NSCLC, in the experiment on SK-MEL-2 melanoma, with UACC-62 melanoma and in the experiment with TK-10 renal was greater than 100 µM each time. Besides, the total growth inhibition concentration (TGI) in the experiment on SK-OV-3 ovarian, in the experiment with LOX IMVI melanoma, in the experiment on OVCAR-3 ovarian and with NCI-H522 lung was greater than 100 µM in each case.
Consider `O=C1/C(=C/C=C/c2ccccc2)N=C(c2ccccc2)N1c1ccc(S(=O)(=O)Nc2nccs2)cc1`, for which the TGI in the experiment with NCI-H226 lung is 55.5 µM; in the experiment with SW-620 colon it was greater than 100 µM; in the experiment with HOP-62 NSCLC, greater than 100 µM; with SK-MEL-2 melanoma it was 86.6 µM; with MALME-3M melanoma, greater than 100 µM; in the experiment on UACC-62 melanoma, 61.7 µM. The TGI in the experiment on TK-10 renal is greater than 100 µM; with SK-OV-3 ovarian it was 85.2 µM; in the experiment with LOX IMVI melanoma, 55.1 µM; with OVCAR-3 ovarian, 48.2 µM; in the experiment on NCI-H522 lung, 36.6 µM.
Regarding `O=c1oc2cc(O)ccc2c2oc3cc(O)ccc3c12`, the TGI is greater than 125 µM in the experiment on NCI-H226 lung; greater than 125 µM in the experiment on SW-620 colon; 54.1 µM in the experiment on HOP-62 NSCLC; greater than 125 µM in the experiment on SK-MEL-2 melanoma; greater than 125 µM in the experiment with MALME-3M melanoma; greater than 125 µM with UACC-62 melanoma. For the same compound, the TGI with SK-OV-3 ovarian was 70.8 µM; in the experiment with LOX IMVI melanoma, greater than 102 µM; with OVCAR-3 ovarian, 114 µM; with NCI-H522 lung it was 31.9 µM.
For the compound `CC1(O)C2(c3ccccc3)CCC[N+]1(C)CC2` (stereo not drawn), the TGI in the experiment on NCI-H226 lung, with SW-620 colon, in the experiment with HOP-62 NSCLC, in the experiment on SK-MEL-2 melanoma, with MALME-3M melanoma and with UACC-62 melanoma was greater than 100 µM in each case. Moreover, the TGI in the experiment on TK-10 renal, in the experiment on SK-OV-3 ovarian, in the experiment on LOX IMVI melanoma and with OVCAR-3 ovarian was greater than 100 µM each time.
Regarding `CC(=O)OCCCCN1C(=O)CSc2ccccc21`, the concentration for total growth inhibition (TGI) in the experiment on SW-620 colon, in the experiment with HOP-62 NSCLC, in the experiment on SK-MEL-2 melanoma, in the experiment with UACC-62 melanoma, with TK-10 renal and with SK-OV-3 ovarian was greater than 100 µM throughout. The TGI in the experiment with LOX IMVI melanoma, in the experiment on OVCAR-3 ovarian and in the experiment with NCI-H522 lung was greater than 100 µM each time.
On to `CC[C@@H]1CSC(/C=C/C2OC3OC(C)(C)OC3C3OC(C)(C)OC23)=N1` (stereo partly drawn), for which the TGI in the experiment on NCI-H226 lung is 35.9 µM; with SW-620 colon, 11.2 µM; in the experiment on HOP-62 NSCLC, 59.4 µM; in the experiment on SK-MEL-2 melanoma it was 29.8 µM; in the experiment on MALME-3M melanoma, 23.8 µM; in the experiment on UACC-62 melanoma, 26.8 µM. The TGI came out at 14.6 µM in the experiment on TK-10 renal; 91.4 µM with SK-OV-3 ovarian; 20.6 µM in the experiment on LOX IMVI melanoma; 16.7 µM in the experiment on OVCAR-3 ovarian; 12.1 µM in the experiment with NCI-H522 lung.
With `CC(C)CNCCc1ccccn1`, the TGI in the experiment on NCI-H226 lung, in the experiment on SW-620 colon, in the experiment with HOP-62 NSCLC, in the experiment on SK-MEL-2 melanoma, in the experiment with MALME-3M melanoma and in the experiment with UACC-62 melanoma was greater than 100 µM each time. In addition, the TGI with TK-10 renal, with SK-OV-3 ovarian, in the experiment on LOX IMVI melanoma, in the experiment with OVCAR-3 ovarian and with NCI-H522 lung was greater than 100 µM throughout.
As to `C=CCn1c(=O)c(Br)nn(CCOCP(=O)(OCC)OCC)c1=O`, the concentration for total growth inhibition (TGI) in the experiment on NCI-H226 lung, with SW-620 colon, in the experiment with HOP-62 NSCLC, in the experiment with SK-MEL-2 melanoma, in the experiment on MALME-3M melanoma and in the experiment with LOX IMVI melanoma was greater than 100 µM each time. The TGI in the experiment on OVCAR-3 ovarian and in the experiment with NCI-H522 lung was greater than 100 µM throughout.
Turning to `CN1c2c(nc(N)[nH]c2=O)NCC1CCNc1ccc(C(=O)NC(CCC(=O)O)C(=O)O)cc1` (stereo not drawn), the TGI worked out at 3050 µM in the experiment on NCI-H226 lung; 1810 µM in the experiment with SW-620 colon; 1930 µM in the experiment with HOP-62 NSCLC; 3050 µM with SK-MEL-2 melanoma; 2770 µM with MALME-3M melanoma; 1650 µM in the experiment on UACC-62 melanoma. Besides, the TGI in the experiment on TK-10 renal turned out to be 2500 µM; in the experiment on SK-OV-3 ovarian, 2350 µM; in the experiment on LOX IMVI melanoma, 783 µM; in the experiment with OVCAR-3 ovarian it was 2460 µM; in the experiment with NCI-H522 lung, 2470 µM.
For the compound `CN(C)c1ccc(C2CC(=O)CC(c3ccc(N(C)C)cc3)C23C(=O)NC(=S)NC3=O)cc1` (stereo not drawn), the TGI is greater than 100 µM in the experiment on NCI-H226 lung; greater than 100 µM in the experiment with SW-620 colon; 45.6 µM in the experiment on HOP-62 NSCLC; greater than 100 µM in the experiment on SK-MEL-2 melanoma; greater than 100 µM in the experiment with MALME-3M melanoma; greater than 100 µM in the experiment on UACC-62 melanoma. Moreover, the TGI in the experiment on TK-10 renal, with SK-OV-3 ovarian, with LOX IMVI melanoma and with OVCAR-3 ovarian was greater than 100 µM in each case.
On to `COc1ccc(C(=O)c2nc3ccccc3nc2N2CCN(c3ccccc3)CC2)cc1OC`, for which the concentration for total growth inhibition (TGI) with SW-620 colon, in the experiment with HOP-62 NSCLC, with SK-MEL-2 melanoma, in the experiment on MALME-3M melanoma, in the experiment with UACC-62 melanoma and with TK-10 renal was greater than 100 µM in each case. Besides, the TGI in the experiment with SK-OV-3 ovarian, in the experiment with LOX IMVI melanoma, with OVCAR-3 ovarian and in the experiment on NCI-H522 lung was greater than 100 µM in each case.
For `Nc1nc(SCCNC(=O)CCc2ccc(O)c(I)c2)nc2c1ncn2C1OC(CO)C(O)C1O` (stereo not drawn), the TGI in the experiment with NCI-H226 lung, in the experiment with SW-620 colon, with HOP-62 NSCLC, in the experiment with SK-MEL-2 melanoma, in the experiment on MALME-3M melanoma and with UACC-62 melanoma was greater than 100 µM each time. The TGI in the experiment with TK-10 renal, in the experiment on SK-OV-3 ovarian, in the experiment on OVCAR-3 ovarian and in the experiment with NCI-H522 lung was greater than 100 µM throughout.
